Results: PMC10175918 (Communications Biology, 2023)
Like-named read-outs stand apart in the source and are kept apart here.

Tests used:
Assay in all cases: TGFα-shedding assay-based GPCR screening with chimeric Gα subunit proteins
Assay type in all cases: cell-based
348 GPCRs [1] = target: T1, 348 GPCRs (Homo sapiens, UniProt P08908); settings: 10µM, Favipiravir 100μM
T1 construct: expressed in transfected cells; host or cells: HEK293A
T1 sequence (P08908 1-422): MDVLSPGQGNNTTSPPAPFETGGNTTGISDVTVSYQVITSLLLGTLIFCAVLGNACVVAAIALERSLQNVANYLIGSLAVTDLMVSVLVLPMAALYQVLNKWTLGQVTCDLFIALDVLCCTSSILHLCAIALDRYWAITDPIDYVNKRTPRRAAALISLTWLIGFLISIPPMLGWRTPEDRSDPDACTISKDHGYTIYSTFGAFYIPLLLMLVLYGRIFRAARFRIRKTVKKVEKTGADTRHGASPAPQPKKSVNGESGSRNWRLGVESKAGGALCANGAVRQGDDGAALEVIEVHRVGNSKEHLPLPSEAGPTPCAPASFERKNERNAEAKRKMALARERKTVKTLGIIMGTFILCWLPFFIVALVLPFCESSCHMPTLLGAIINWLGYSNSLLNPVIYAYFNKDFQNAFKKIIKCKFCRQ

348 GPCRs [2] = target: T2, 348 GPCRs (Homo sapiens, UniProt P30968); settings: 10µM, Favipiravir 100μM
T2 construct: expressed in transfected cells; host or cells: HEK293A
T2 sequence (P30968 1-328): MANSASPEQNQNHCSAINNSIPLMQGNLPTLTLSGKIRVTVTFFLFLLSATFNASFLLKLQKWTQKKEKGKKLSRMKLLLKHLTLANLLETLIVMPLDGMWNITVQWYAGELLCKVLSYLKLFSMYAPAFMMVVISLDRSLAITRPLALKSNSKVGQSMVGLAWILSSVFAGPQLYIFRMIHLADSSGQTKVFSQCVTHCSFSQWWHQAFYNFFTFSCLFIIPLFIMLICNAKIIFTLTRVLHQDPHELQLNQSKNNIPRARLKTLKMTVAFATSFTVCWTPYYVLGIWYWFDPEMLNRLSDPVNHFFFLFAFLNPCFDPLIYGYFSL

348 GPCRs [3] = target: T3, 348 GPCRs (Homo sapiens, UniProt P47775)
T3 construct: expressed in transfected cells; host or cells: HEK293A
T3 sequence (P47775 1-334): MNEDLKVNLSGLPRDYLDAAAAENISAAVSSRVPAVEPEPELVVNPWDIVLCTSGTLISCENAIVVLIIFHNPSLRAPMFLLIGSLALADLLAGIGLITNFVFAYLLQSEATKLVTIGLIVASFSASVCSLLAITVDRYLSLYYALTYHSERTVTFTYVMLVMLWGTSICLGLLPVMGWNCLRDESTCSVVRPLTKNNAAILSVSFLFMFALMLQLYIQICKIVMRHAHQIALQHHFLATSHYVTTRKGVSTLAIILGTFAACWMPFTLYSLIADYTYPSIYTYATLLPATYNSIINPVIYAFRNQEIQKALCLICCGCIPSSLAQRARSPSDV

348 GPCRs [4] = target: T4, 348 GPCRs (Homo sapiens, UniProt P51582)
T4 construct: expressed in transfected cells; host or cells: HEK293A

348 GPCRs [5] = target: T5, 348 GPCRs (Homo sapiens, UniProt P51684); settings: 10µM, Favipiravir 100μM
T5 construct: expressed in transfected cells; host or cells: HEK293A
T5 sequence (P51684 1-374): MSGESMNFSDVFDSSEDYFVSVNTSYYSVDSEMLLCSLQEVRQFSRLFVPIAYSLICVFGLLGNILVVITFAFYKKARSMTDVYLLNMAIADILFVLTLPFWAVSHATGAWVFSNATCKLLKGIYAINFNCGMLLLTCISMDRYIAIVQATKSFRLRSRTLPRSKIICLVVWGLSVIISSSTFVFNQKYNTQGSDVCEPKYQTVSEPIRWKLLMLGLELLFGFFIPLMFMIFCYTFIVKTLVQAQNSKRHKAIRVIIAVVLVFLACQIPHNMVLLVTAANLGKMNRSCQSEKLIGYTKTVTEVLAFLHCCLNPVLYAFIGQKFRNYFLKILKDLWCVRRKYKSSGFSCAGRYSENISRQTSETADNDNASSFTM

348 GPCRs [6] = target: T6, 348 GPCRs (Homo sapiens, UniProt Q8IZP9)
T6 construct: expressed in transfected cells; host or cells: HEK293A

348 GPCRs [7] = target: T7, 348 GPCRs (Homo sapiens, UniProt Q9NS66); settings: 10µM, Favipiravir 100μM
T7 construct: expressed in transfected cells; host or cells: HEK293A

348 GPCRs [8] = target: T8, 348 GPCRs (Homo sapiens, UniProt Q9NYV8); settings: 10µM, Favipiravir 100μM
T8 construct: expressed in transfected cells; host or cells: HEK293A
T8 sequence (Q9NYV8 1-317): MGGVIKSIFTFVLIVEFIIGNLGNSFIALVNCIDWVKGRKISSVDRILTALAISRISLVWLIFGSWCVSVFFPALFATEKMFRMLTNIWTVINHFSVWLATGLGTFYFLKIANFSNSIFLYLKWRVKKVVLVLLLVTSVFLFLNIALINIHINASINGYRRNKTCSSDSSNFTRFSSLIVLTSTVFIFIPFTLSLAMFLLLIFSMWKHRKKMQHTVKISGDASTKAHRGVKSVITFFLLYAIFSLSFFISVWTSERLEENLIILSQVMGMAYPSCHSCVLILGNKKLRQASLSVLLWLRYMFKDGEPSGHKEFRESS

[9] = 5-HT1A (5-hydroxytryptamine receptor 1A), read-out: % GPCR activation compared to TPA
[10] = GNRHR (gonadotropin releasing hormone receptor), read-out: % GPCR activation compared to TPA
[11] = GPCR GPR12 (G protein-coupled receptor 12), read-out: % GPCR activation compared to TPA
[12] = GPCR P2Y4 (pyrimidinergic receptor P2Y, G-protein coupled, 4), read-out: % GPCR activation compared to TPA
[13] = CCR6 (C-C motif chemokine receptor 6), read-out: % GPCR activation compared to TPA
[14] = GPCR GPR64 (G protein-coupled receptor 64), read-out: % GPCR activation compared to TPA
[15] = GPR173 (G protein-coupled receptor 173), read-out: % GPCR activation compared to TPA
[16] = TAS2R14 (taste receptor, type 2, member 14), read-out: % GPCR activation compared to TPA
[17] = read-out: % GPCR activation compared to TPA, 5-HT1A (5-hydroxytryptamine receptor 1A)
[18] = read-out: % GPCR activation compared to TPA, GNRHR (gonadotropin releasing hormone receptor)
[19] = read-out: % GPCR activation compared to TPA, GPCR GPR12 (G protein-coupled receptor 12)
[20] = read-out: % GPCR activation compared to TPA, GPCR P2Y4 (pyrimidinergic receptor P2Y, G-protein coupled, 4)
[21] = read-out: % GPCR activation compared to TPA, CCR6 (C-C motif chemokine receptor 6)
[22] = read-out: % GPCR activation compared to TPA, GPCR GPR64 (G protein-coupled receptor 64)
[23] = read-out: % GPCR activation compared to TPA, GPR173 (G protein-coupled receptor 173)
[24] = read-out: % GPCR activation compared to TPA, TAS2R14 (taste receptor, type 2, member 14)

T4 sequence (P51582 whole entry): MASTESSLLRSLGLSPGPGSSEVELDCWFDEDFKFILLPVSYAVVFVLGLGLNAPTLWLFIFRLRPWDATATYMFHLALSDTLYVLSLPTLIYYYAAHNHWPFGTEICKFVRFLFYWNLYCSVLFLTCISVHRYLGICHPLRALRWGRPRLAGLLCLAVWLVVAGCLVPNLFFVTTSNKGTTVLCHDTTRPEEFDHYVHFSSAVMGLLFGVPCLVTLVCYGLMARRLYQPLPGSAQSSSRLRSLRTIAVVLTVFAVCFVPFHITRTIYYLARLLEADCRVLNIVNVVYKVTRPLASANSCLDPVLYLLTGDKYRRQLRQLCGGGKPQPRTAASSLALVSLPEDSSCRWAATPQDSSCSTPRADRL
T6 sequence (Q8IZP9 38-1017): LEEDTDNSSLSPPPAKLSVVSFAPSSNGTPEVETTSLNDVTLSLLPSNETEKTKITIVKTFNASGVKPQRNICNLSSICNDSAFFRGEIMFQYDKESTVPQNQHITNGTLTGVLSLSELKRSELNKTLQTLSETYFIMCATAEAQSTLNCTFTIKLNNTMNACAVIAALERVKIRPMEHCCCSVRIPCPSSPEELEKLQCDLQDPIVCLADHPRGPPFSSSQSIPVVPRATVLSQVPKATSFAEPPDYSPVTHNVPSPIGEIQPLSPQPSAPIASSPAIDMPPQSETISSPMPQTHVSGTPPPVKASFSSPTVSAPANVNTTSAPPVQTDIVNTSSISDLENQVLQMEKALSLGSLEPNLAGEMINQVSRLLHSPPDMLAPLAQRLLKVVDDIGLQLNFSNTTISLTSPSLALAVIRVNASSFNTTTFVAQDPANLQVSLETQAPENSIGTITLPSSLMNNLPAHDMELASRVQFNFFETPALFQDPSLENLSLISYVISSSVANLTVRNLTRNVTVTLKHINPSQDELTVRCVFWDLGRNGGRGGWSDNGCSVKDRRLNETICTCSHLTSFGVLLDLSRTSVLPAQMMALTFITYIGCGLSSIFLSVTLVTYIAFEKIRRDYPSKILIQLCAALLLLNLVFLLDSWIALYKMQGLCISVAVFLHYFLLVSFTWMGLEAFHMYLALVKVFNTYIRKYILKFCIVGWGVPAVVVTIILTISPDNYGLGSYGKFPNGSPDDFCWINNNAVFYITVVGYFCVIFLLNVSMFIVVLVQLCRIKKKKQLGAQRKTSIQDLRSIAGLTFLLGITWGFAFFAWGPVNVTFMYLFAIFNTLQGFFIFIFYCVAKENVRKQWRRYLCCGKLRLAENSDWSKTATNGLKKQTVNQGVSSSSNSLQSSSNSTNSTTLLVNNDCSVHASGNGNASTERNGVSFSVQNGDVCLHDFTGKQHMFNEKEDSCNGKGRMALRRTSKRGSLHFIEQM
T7 sequence (Q9NS66 whole entry): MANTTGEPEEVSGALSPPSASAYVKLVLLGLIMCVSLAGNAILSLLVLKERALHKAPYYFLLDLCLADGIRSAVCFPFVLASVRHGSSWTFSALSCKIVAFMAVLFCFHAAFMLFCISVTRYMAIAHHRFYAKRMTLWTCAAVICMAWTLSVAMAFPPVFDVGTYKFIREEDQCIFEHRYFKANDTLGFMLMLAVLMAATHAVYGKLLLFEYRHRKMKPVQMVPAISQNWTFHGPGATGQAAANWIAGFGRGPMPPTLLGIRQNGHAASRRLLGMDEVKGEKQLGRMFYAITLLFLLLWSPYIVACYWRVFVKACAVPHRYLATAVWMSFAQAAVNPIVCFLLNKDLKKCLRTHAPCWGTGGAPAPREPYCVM

| Compound | activation at 10 µM (348 GPCRs [1]; [9]) | activation at 10 µM (348 GPCRs [2]; [10]) | activation at 10 µM (348 GPCRs [3]; [11]) | activation at 10 µM (348 GPCRs [4]; [12]) | activation at 10 µM (348 GPCRs [5]; [13]) | activation at 10 µM (348 GPCRs [6]; [14]) | activation at 10 µM (348 GPCRs [7]; [15]) | activation at 100 µM (348 GPCRs [8]; [16]) | activation at 10 µM (348 GPCRs [1]; [17]) | activation at 10 µM (348 GPCRs [2]; [18]) | activation at 10 µM (348 GPCRs [3]; [19]) | activation at 10 µM (348 GPCRs [4]; [20]) | activation at 10 µM (348 GPCRs [5]; [21]) | activation at 10 µM (348 GPCRs [6]; [22]) | activation at 10 µM (348 GPCRs [7]; [23]) | activation at 100 µM (348 GPCRs [8]; [24]) | activation at 100 µM (348 GPCRs [3]; GPCR GPR12 (G protein-coupled receptor 12), 100μM, read-out: % GPCR activation compared to TPA) | activation at 100 µM (348 GPCRs [4]; GPCR P2Y4 (pyrimidinergic receptor P2Y, G-protein coupled, 4), 100μM, read-out: % GPCR activation compared to TPA) | activation at 100 µM (348 GPCRs [6]; GPCR GPR64 (G protein-coupled receptor 64), 100μM, read-out: % GPCR activation compared to TPA) |
| --- | --- | --- | --- | --- | --- | --- | --- | --- | --- | --- | --- | --- | --- | --- | --- | --- | --- | --- | --- |
| N#C[C@@]1(c2ccc3c(N)ncnn23)O[C@H](CO)[C@@H](O)[C@H]1O [GS441524] | -0.48% | -3.48% | 4.27% | -5.06% | 0.67% | -4.34% | 0.119% | -2.2% |  |  |  |  |  |  |  |  |  |  |  |
| CC(C)OC(=O)[C@H](C)N[P@](=O)(OC[C@H]1O[C@@H](n2ccc(=O)[nH]c2=O)[C@](C)(F)[C@@H]1O)Oc1ccccc1 [sofosbuvir] |  |  |  |  |  |  |  |  | -0.274% | -0.976% | -0.471% | -14.4% | -3.43% | -7.7% | -0.581% | -1.26% |  |  |  |
| CCC(CC)COC(=O)[C@H](C)N[P@](=O)(OC[C@H]1O[C@@](C#N)(c2ccc3c(N)ncnn23)[C@H](O)[C@@H]1O)Oc1ccccc1 [remdesivir] |  |  |  |  |  |  |  |  | 1.91% | -0.876% | 5.35% | -0.00402% | 2.34% | -4.08% | 1.49% | -1.51% |  |  |  |
| CC(C)C(=O)OC[C@H]1O[C@@H](n2ccc(NO)nc2=O)[C@H](O)[C@@H]1O [molnupiravir] | -1.27% | -1.32% | 0.357% | -12.8% | -2.53% | -5.62% | -4.49% | -1.82% |  |  |  |  |  |  |  |  |  |  |  |
| NC(=O)c1nc(F)cnc1O [favipiravir, 6-fluoro-3-hydroxy-2-pyrazinecarboxamide] | -0.504% | -1.3% |  |  | 0.146% |  | 0.0591% | 0.627% |  |  |  |  |  |  |  |  | 3.7% | -6.06% | -2.31% |
